Reference: ChEMBL document CHEMBL1697781, “Assessment of the health effects of chemicals in humans: II. Construction of an adverse effects database for QSAR modeling” (Curr Drug Discov Technol, 2004)

Tests used:
Settings in all cases: human; call rule not given here
Hepatotoxicity [1] = test: FDA HLAED, gamma-glutamyl transferase (GGT) increase
Hepatotoxicity [2] = test: FDA HLAED, liver enzyme composite activity
Hepatotoxicity [3] = test: FDA HLAED, alkaline phosphatase increase
Hepatotoxicity [4] = test: FDA HLAED, serum glutamic pyruvic transaminase (SGPT) increase
Hepatotoxicity [5] = test: FDA HLAED, lactate dehydrogenase (LDH) increase
Hepatotoxicity [6] = test: FDA HLAED, serum glutamic oxaloacetic transaminase (SGOT) increase

Compound	GGT Increase - Activity Score (Hepatotoxicity [1])	GGT Increase - Index Value (Hepatotoxicity [1])	GGT Increase - Number of Reports (Hepatotoxicity [1])	Composite Activity - Active (Hepatotoxicity [2])	Composite Activity - Marginal (Hepatotoxicity [2])	Composite Activity - Score (Hepatotoxicity [2])	Alkaline Phosphatase Increase - Activity Score (Hepatotoxicity [3])	Alkaline Phosphatase Increase - Index Value (Hepatotoxicity [3])	Alkaline Phosphatase Increase - Number of Reports (Hepatotoxicity [3])	SGPT Increase - Activity Score (Hepatotoxicity [4])	SGPT Increase - Index Value (Hepatotoxicity [4])	SGPT Increase - Number of Reports (Hepatotoxicity [4])	LDH Increase - Activity Score (Hepatotoxicity [5])	LDH Increase - Index Value (Hepatotoxicity [5])	LDH Increase - Number of Reports (Hepatotoxicity [5])	SGOT Increase - Activity Score (Hepatotoxicity [6])	SGOT Increase - Index Value (Hepatotoxicity [6])	SGOT Increase - Number of Reports (Hepatotoxicity [6])	other results
CCCCC[C@H](O)/C=C/[C@H]1[C@H](O)CC(=O)[C@@H]1CCCCCCC(=O)O [ALPROSTADIL]	Inactive	0	< 4	0	0	Inactive	Inactive	0	< 4	Inactive	0	< 4	Inactive	0	< 4	Inactive	0	< 4	–
Nc1c2c(nc3ccccc13)CCCC2 [TACRINE]	Active	17.4	>= 4	–	–	–	Active	14.1	>= 4	Active	170	>= 4	Active	19	>= 4	Active	58.1	>= 4	Composite Activity - Active (Hepatotoxicity [2]; Liver): 5; Composite Activity - Marginal (Hepatotoxicity [2]; Liver): 0; Composite Activity - Score (Hepatotoxicity [2]; Liver): Active
CC(C(=O)O)c1ccc(-c2ccccc2)c(F)c1 (configuration not stated) [FLURBIPROFEN]	Inactive	0.9	>= 4	0	0	Inactive	Inactive	0.9	>= 4	Inactive	0.9	>= 4	Inactive	0.2	< 4	Inactive	0.9	>= 4	–
COc1cc(N)c(Cl)cc1C(=O)NC1CCN(CCCOc2ccc(F)cc2)CC1OC (configuration not stated) [CISAPRIDE]	Inactive	0.2	< 4	0	0	Inactive	Inactive	0.2	>= 4	Inactive	0.4	>= 4	Inactive	0.1	< 4	Inactive	0.3	>= 4	–
Cn1nnnc1SCC1=C(C(=O)[O-])N2C(=O)[C@@H](NC(=O)[C@H](OC=O)c3ccccc3)[C@H]2SC1.[Na+] [CEFAMANDOLE NAFATE]	Inactive	0	< 4	0	0	Inactive	Inactive	0	< 4	Inactive	0	< 4	Inactive	0	< 4	Inactive	0	< 4	–
CN(C/C=C/c1ccccc1)Cc1cccc2ccccc12 [NAFTIFINE]	Inactive	0	< 4	–	–	–	Inactive	0	< 4	Inactive	0	< 4	Inactive	0	< 4	Inactive	0	< 4	Composite Activity - Active (Hepatotoxicity [2]; Liver): 0; Composite Activity - Marginal (Hepatotoxicity [2]; Liver): 0; Composite Activity - Score (Hepatotoxicity [2]; Liver): Inactive
CN1CCN(C2=Nc3cc(Cl)ccc3Nc3ccccc32)CC1 [CLOZAPINE]	Active	11.4	>= 4	5	0	Active	Active	34.2	>= 4	Active	42.9	>= 4	Active	16.8	>= 4	Active	45.1	>= 4	–
CC(C(=O)O)c1cccc(C(=O)c2ccccc2)c1 (configuration not stated) [KETOPROFEN]	Inactive	0	< 4	0	0	Inactive	Inactive	0.6	< 4	Inactive	0.4	< 4	Inactive	0.4	< 4	Inactive	0.6	< 4	–
O=C1CC[C@@]2(O)[C@H]3Cc4ccc(O)c5c4[C@@]2(CCN3CC2CC2)[C@H]1O5 [NALTREXONE]	Inactive	0	< 4	0	0	Inactive	Inactive	0	< 4	Inactive	23.3	< 4	Inactive	0	< 4	Inactive	0	< 4	–
